According to PubChem BioAssay (NCI):
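Each compound was tested at five concentrations against cells in 96-well plates for 48 hours. Here, GI50 denotes the concentration required for 50% inhibition of growth. TGI is the concentration that stops growth completely.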

How the values were obtained:
Experiment in all cases: NCI-60 cell line screen, 48 h
786-0 renal = test system: 786-0 renal
HCT-116 colon = test system: HCT-116 colon
HCT-15 colon = test system: HCT-15 colon
MALME-3M melanoma = test system: MALME-3M melanoma
NCI-H226 lung = test system: NCI-H226 lung
NCI-H522 lung = test system: NCI-H522 lung
SK-MEL-2 melanoma = test system: SK-MEL-2 melanoma
SK-MEL-28 melanoma = test system: SK-MEL-28 melanoma
SN12C renal = test system: SN12C renal
SK-MEL-5 melanoma = test system: SK-MEL-5 melanoma

Row | Structure (SMILES) | GI50 (786-0 renal) | TGI (786-0 renal) | GI50 (HCT-116 colon) | TGI (HCT-116 colon) | GI50 (HCT-15 colon) | TGI (HCT-15 colon) | GI50 (MALME-3M melanoma) | TGI (MALME-3M melanoma) | GI50 (NCI-H226 lung) | TGI (NCI-H226 lung) | GI50 (NCI-H522 lung) | TGI (NCI-H522 lung) | TGI (SK-MEL-2 melanoma) | GI50 (SK-MEL-28 melanoma) | TGI (SK-MEL-28 melanoma) | GI50 (SN12C renal) | TGI (SN12C renal) | TGI (SK-MEL-5 melanoma) | GI50 (SK-MEL-2 melanoma) | GI50 (SK-MEL-5 melanoma)
1 | Clc1nc(Cl)c2c3c(sc2n1)CCCC3 | 5.17 µM | > 100 µM | 3.95 µM | > 100 µM | 4.07 µM | > 100 µM | > 100 µM | > 100 µM | 2.54 µM | > 28.8 µM | 1.64 µM | > 26 µM | > 59.7 µM | 6.97 µM | > 100 µM | 3.26 µM | > 100 µM | – | – | –
2 | CSc1nc2c(nc(N)n2C2OC(COC(C)=O)C(OC(C)=O)C(OC(C)=O)C2OC(C)=O)c(=O)n1C (stereo not given) | – | > 100 µM | – | > 100 µM | – | > 100 µM | – | > 100 µM | – | > 100 µM | – | – | > 100 µM | – | – | – | > 100 µM | > 100 µM | – | –
3 | NC1=NN(c2ccccc2)C(=O)C1/C(=N\NC(=O)c1cc2ccccc2cc1O)C(=O)Nc1cccc(C(F)(F)F)c1 (stereo not given) | – | > 100 µM | – | 94.9 µM | – | – | – | > 100 µM | – | – | – | – | 93.8 µM | – | > 100 µM | – | > 100 µM | 51.8 µM | – | –
4 | N.N.O=P([O-])([O-])CN(CCN(CP(=O)([O-])[O-])CP(=O)([O-])[O-])CP(=O)([O-])[O-].[Pt+2] | > 100 µM | > 100 µM | > 100 µM | > 100 µM | – | – | > 100 µM | > 100 µM | > 100 µM | > 100 µM | – | – | > 100 µM | > 100 µM | > 100 µM | > 100 µM | > 100 µM | > 100 µM | > 100 µM | > 100 µM
5 | Cc1ccc(NC(=O)CC/C(CC(=O)C(C)(C)C)=N/NC(=O)C[N+](C)(C)C)cc1C | – | 52.9 µM | – | > 100 µM | – | > 100 µM | – | > 100 µM | – | > 100 µM | – | – | > 100 µM | – | > 100 µM | – | > 100 µM | > 100 µM | – | –
6 | O=C1C=CC(=Nc2ccccc2)c2ccccc21 | – | 24.7 µM | – | 24.4 µM | – | 24.5 µM | – | – | – | 28.8 µM | – | 23.3 µM | 8.15 µM | – | 42 µM | – | 25.7 µM | 2.6 µM | – | –
7 | CCOC(=O)c1ccc2c(c1)nc(/C=C/c1ccc(Cl)cc1)n2-c1cc(C(C)(C)C)[nH]n1 | 2.98 µM | 9.29 µM | 3.42 µM | 12.4 µM | 4.26 µM | > 100 µM | 2.8 µM | 18.5 µM | 3.63 µM | 27.2 µM | 2.84 µM | 10.6 µM | – | 3.51 µM | 40.3 µM | 7.3 µM | 81 µM | 28.3 µM | – | 3.63 µM
8 | CSCC[C@H](NC(=O)[C@H](CC(C)C)NC(=O)[C@@H](Cc1ccccc1)NC(=O)CNC(=O)[C@@H](NC(=O)[C@H](C)NC(=O)[C@H](Cc1c[nH]c2ccccc12)NC(=O)[C@H](CCC(N)=O)NC(=O)[C@H](N)CC(N)=O)C(C)C)C(N)=O | – | > 12.5 µM | – | > 12.5 µM | – | > 12.5 µM | – | > 12.5 µM | – | > 12.5 µM | – | – | – | – | > 12.5 µM | – | > 12.5 µM | > 12.5 µM | – | –
9 | NCCCn1c2c(c3ccc([N+](=O)[O-])cc3c1=O)C(=O)c1cc(-c3ccccc3)ccc1-2 | 0.181 µM | 0.334 µM | 0.172 µM | 0.315 µM | 0.187 µM | 0.365 µM | – | – | – | – | 0.22 µM | 0.467 µM | 1.27 µM | 1.51 µM | 3.13 µM | 0.824 µM | 2.34 µM | 2.62 µM | 0.438 µM | 1.31 µM
10 | C/C=C(/CCC1NCCC2c3ccccc3NC12)[Si](C)(C)C (stereo not given) | – | 23.7 µM | – | 11.9 µM | – | 24.9 µM | – | – | – | 27.1 µM | – | 30.2 µM | 26.7 µM | – | 16.9 µM | – | 23.9 µM | 26 µM | – | –
11 | C[C@]12CCC[C@H](O)[C@H]1C[C@H](CO)CC2 | – | > 100 µM | – | > 100 µM | – | > 100 µM | – | > 100 µM | – | > 100 µM | – | > 100 µM | > 100 µM | – | > 100 µM | – | > 100 µM | – | – | –
12 | C=C1CC[C@@H]2[C@](C)(COC(C)=O)[C@H](OC(C)=O)CC[C@@]2(C)[C@@H]1CC(Nc1ccc(S(=O)(=O)Nc2cc(C)on2)cc1)C1=CCOC1=O (stereo not given in full) | 1.96 µM | 3.66 µM | 1.12 µM | 2.39 µM | 1.5 µM | 3.83 µM | – | – | – | – | 1.04 µM | 2.42 µM | 4.4 µM | 2.02 µM | 4.31 µM | 1.73 µM | 4.52 µM | 4.65 µM | 2.04 µM | 2.11 µM
13 | O=[N+]([O-])c1ccc(Sc2nc(Cl)nc(NC3CCCC3)n2)cc1 | > 10 µM | > 10 µM | 4.83 µM | > 10 µM | > 10 µM | > 10 µM | > 10 µM | > 10 µM | > 10 µM | > 10 µM | – | – | > 10 µM | 7 µM | > 10 µM | > 10 µM | > 10 µM | > 10 µM | > 10 µM | 5.32 µM
14 | CC(=O)[CH-]C(=O)c1ccccc1.CC(=O)[CH-]C(=O)c1ccccc1.CC1(C)OCC(C2OC3OC(C)(C)OC3C2[O-])O1.CC1(C)OCC(C2OC3OC(C)(C)OC3C2[O-])O1.[Ti+4] (stereo not given) | 11.8 µM | 27.3 µM | 14.4 µM | 32.1 µM | 15.4 µM | 46.5 µM | 10.5 µM | 28.5 µM | – | – | – | – | 25.5 µM | 14 µM | 29.9 µM | 17.7 µM | 43.4 µM | – | 7.49 µM | –
15 | CCOC(=O)C1=C(C)N(Cc2ccccc2)C(=O)C1CC#N (stereo not given) | – | > 100 µM | – | > 100 µM | – | > 100 µM | – | – | – | – | – | – | > 100 µM | – | > 100 µM | – | > 100 µM | – | – | –
16 | NCCCCCCCCCCCn1c2c(c3ccccc3c1=O)C(=O)c1ccccc1-2 | 19.9 µM | 46.9 µM | – | – | 5.58 µM | 19.4 µM | 16.7 µM | 53.6 µM | 25.2 µM | 54.3 µM | 3.39 µM | 10.4 µM | – | 2.27 µM | 4.82 µM | 1.98 µM | 3.61 µM | 29.5 µM | – | 10.3 µM
17 | CCN(CC)CCOc1ccc(/C=C2\C[C@H]3[C@H]4CC=C5C[C@@H](O)CC[C@]5(C)[C@H]4CC[C@]3(C)[C@H]2O)cc1OC | 5.09 µM | 16.1 µM | 14.6 µM | > 50 µM | 9.19 µM | 18.5 µM | – | – | 7.71 µM | 16 µM | 0.216 µM | > 50 µM | > 50 µM | 7.74 µM | > 50 µM | 6.78 µM | 14 µM | 11.1 µM | 0.135 µM | 0.625 µM
18 | NC1CCC(Nc2nc(NCc3cc(Cl)ccc3O)c3ncn(C4CCCC4)c3n2)CC1 (stereo not given) | 0.211 µM | 0.624 µM | 0.0644 µM | 0.66 µM | 0.259 µM | 0.966 µM | – | – | 0.247 µM | 2.78 µM | 0.152 µM | 0.335 µM | 0.356 µM | 0.153 µM | 0.34 µM | 0.143 µM | 0.759 µM | 0.325 µM | 0.188 µM | 0.175 µM
19 | CN(C)CCC=C1c2ccccc2C(C)(C)c2ccccc21 | 12.8 µM | 27 µM | 10.3 µM | 22.4 µM | 12.3 µM | 27.5 µM | – | – | – | – | 17.9 µM | 37.1 µM | 22.1 µM | 2.05 µM | 4.31 µM | 15.6 µM | 34 µM | 5.09 µM | 6.26 µM | 1.9 µM
20 | COC(=O)NC(=Nc1ccc(Oc2ccccc2)cc1NC=O)NC(=O)OC | – | > 100 µM | – | 28 µM | – | – | – | > 100 µM | – | 9.4 µM | – | 0.449 µM | – | – | – | – | > 100 µM | > 100 µM | – | –
21 | O=C(NNc1ccc(F)cc1)C1CCC(CNS(=O)(=O)c2ccc(Cl)c(Cl)c2)CC1 (stereo not given) | 17.9 µM | > 50 µM | 6.51 µM | 33.9 µM | 7.63 µM | > 50 µM | – | – | 15.6 µM | > 50 µM | 22.8 µM | > 50 µM | > 50 µM | > 50 µM | > 50 µM | 7.97 µM | > 50 µM | 33.1 µM | > 50 µM | 10.8 µM
22 | COC(=O)C1=Cc2cc(OC)c(OC)cc2[C@H](c2ccc(OC)c(OC)c2)C1C(=O)OC (stereo not given in full) | – | > 100 µM | – | > 100 µM | – | > 100 µM | – | > 100 µM | – | > 100 µM | – | – | – | – | > 100 µM | – | > 100 µM | > 100 µM | – | –
23 | CCCCCCCCCCCCCCCC(=O)N[C@H](/C=C/[C@H](O)CCCCCCCCCCCCC)CO | > 100 µM | > 100 µM | > 100 µM | > 100 µM | > 100 µM | > 100 µM | > 100 µM | > 100 µM | > 100 µM | > 100 µM | > 100 µM | > 100 µM | – | > 100 µM | > 100 µM | > 100 µM | > 100 µM | > 100 µM | – | > 100 µM
24 | O=c1c2c(c3ccccc3n1-c1ccccc1)NC(=S)NC2c1ccc(Cl)cc1 (stereo not given) | 3.94 µM | 24.4 µM | 1.96 µM | 7.32 µM | 2.1 µM | 26.8 µM | – | – | 5.36 µM | 37.4 µM | – | – | 32.4 µM | 5.73 µM | 32.5 µM | 3.83 µM | > 100 µM | 10.5 µM | 3.62 µM | 2.42 µM
